Experimental data taken from US20160022684A1, “BET INHIBITOR AND BRUTON'S TYROSINE KINASE INHIBITOR COMBINATIONS” (Pharmacyclics LLC, priority 2014, published 2016).

Assays:
U-2932 = assay: Combined drug treatment cell viability (CellTiter-Glo), ibrutinib with BET inhibitors, U-2932; type: cell-based; settings: U2932, JQ1 20 nM, 3 days
Description: (§1) The DLBCL cell lines used during the experiments included TMD8, OCI-LY3, OCI-LY10, U-2932 and SU-DHL-2. DLBCL cells at either 1×10^4 cells or 2×10^4 cells were plated onto each well of a 96-W plate (Table 1). […] The 96-W plate was then incubated for 3 days. Cell viability was examined using a CellTiter-Glo assay. A 40 μL of CellTiter-Glo reagent was added directly into each well of the 96-W plate. The plate was then shaken on a Shaker ([…]) at speed 5 for 10-20 min at room temperature. Next, about 100 μL of the mixed medium was transferred to a white, non-transparent, flat bottom 96-W plate for assaying. […] Measurements were taken at room temperature. CellTiter-Glow reagents were thawed prior to use. Cells pre-plated onto a second 96-W plate and incubated at room temperature for 30 minutes were used for calibration purposes. […] CI is a quantitative description of the interaction property of the combination of two drugs.

SU-DHL-2 = assay: Combined drug treatment cell viability (CellTiter-Glo), ibrutinib with BET inhibitors, SU-DHL-2; type: cell-based; settings: JQ1 100 nM, 3 days
Description: as §1

OCI-LY3 = assay: Combined drug treatment cell viability (CellTiter-Glo), ibrutinib with BET inhibitors, OCI-LY3; type: cell-based; settings: OCI-LY-3, JQ1 1 uM, 3 days
Description: as §1

OCI-LY10 = assay: Combined drug treatment cell viability (CellTiter-Glo), ibrutinib with BET inhibitors, OCI-LY10; type: cell-based; settings: OCI-LY-10, JQ1 1 uM, 3 days
Description: as §1

YAC-1 (target cells) = assay: NK cell cytotoxicity of splenocytes from treated mice (A20 model); type: in vivo; settings: combination of JQ1 with ibrutinib, splenocytes after 14 days of treatment, co-cultured with YAC-1 for 4 hours
Description: To determine the drug effect on NK cell cytotoxicity, splenocytes (effector cells) were harvested from mice after 14 days of treatment. The splenocytes were co-cultured with YAC-1 (target cells) for 4 hours. The percentage of target cell death (PI-positive cells) was analyzed by flow cytometry.

TMD8 = assay: Combined drug treatment cell viability (CellTiter-Glo), ibrutinib with BET inhibitors, TMD8; type: cell-based; settings: JQ1 20 nM, 3 days
Description: as §1

[1] = ibrutinib 0 nM (BET inhibitor alone): I-BET151 5 uM, OTX015 1 uM
[2] = ibrutinib 0.0256 nM with I-BET151 5 uM, OTX015 1 uM or medium alone (row)
[3] = ibrutinib 0.64 nM with I-BET151 5 uM, OTX015 1 uM or medium alone (row)
[4] = ibrutinib 3.2 nM with I-BET151 5 uM, OTX015 1 uM or medium alone (row)
[5] = ibrutinib 16 nM with I-BET151 5 uM, OTX015 1 uM or medium alone (row)
[6] = ibrutinib 80 nM with I-BET151 5 uM, OTX015 1 uM or medium alone (row)
[7] = ibrutinib 400 nM with I-BET151 5 uM, OTX015 1 uM or medium alone (row)
[8] = ibrutinib 2000 nM with I-BET151 5 uM, OTX015 1 uM or medium alone (row)
[9] = ibrutinib 10000 nM with I-BET151 5 uM, OTX015 1 uM or medium alone (row)
[10] = ibrutinib […] with I-BET151 5 uM, OTX015 1 uM or medium alone (row)

Cc1sc2c(c1C)C(c1ccc(Cl)cc1)=N[C@@H](CC(=O)OC(C)(C)C)c1nnc(C)n1-2 [JQ1]
luminescent signals (U-2932; ibrutinib 0 nM (BET inhibitor alone): I-BET151 200 nM, OTX015 50 nM (Table 2)): 55050.2 | luminescent signals (U-2932; ibrutinib 0.0256 nM with I-BET151 200 nM, OTX015 50 nM (Table 2) or medium alone (row)): 52636.54 | luminescent signals (U-2932; ibrutinib 0.64 nM with I-BET151 200 nM, OTX015 50 nM (Table 2) or medium alone (row)): 46610.32 | luminescent signals (U-2932; ibrutinib 3.2 nM with I-BET151 200 nM, OTX015 50 nM (Table 2) or medium alone (row)): 47334.95 | luminescent signals (U-2932; ibrutinib 16 nM with I-BET151 200 nM, OTX015 50 nM (Table 2) or medium alone (row)): 46417.97 | luminescent signals (U-2932; ibrutinib 80 nM with I-BET151 200 nM, OTX015 50 nM (Table 2) or medium alone (row)): 49232.14 | luminescent signals (U-2932; ibrutinib 400 nM with I-BET151 200 nM, OTX015 50 nM (Table 2) or medium alone (row)): 44892.31 | luminescent signals (U-2932; ibrutinib 2000 nM with I-BET151 200 nM, OTX015 50 nM (Table 2) or medium alone (row)): 44099.18 | luminescent signals (U-2932; ibrutinib 10000 nM with I-BET151 200 nM, OTX015 50 nM (Table 2) or medium alone (row)): 33551.32 | luminescent signals (U-2932; ibrutinib […] with I-BET151 200 nM, OTX015 50 nM (Table 2) or medium alone (row)): 54454.69 | luminescent signals (SU-DHL-2; ibrutinib 0 nM (BET inhibitor alone): I-BET151 2 uM, OTX015 1 uM (Table 2)): 17739.9 | luminescent signals (SU-DHL-2; ibrutinib 0.0256 nM with I-BET151 2 uM, OTX015 1 uM (Table 2) or medium alone (row)): 22662.83 | luminescent signals (SU-DHL-2; ibrutinib 0.64 nM with I-BET151 2 uM, OTX015 1 uM (Table 2) or medium alone (row)): 19308.19 | luminescent signals (SU-DHL-2; ibrutinib 3.2 nM with I-BET151 2 uM, OTX015 1 uM (Table 2) or medium alone (row)): 25589.27 | luminescent signals (SU-DHL-2; ibrutinib 16 nM with I-BET151 2 uM, OTX015 1 uM (Table 2) or medium alone (row)): 20485.07 | luminescent signals (SU-DHL-2; ibrutinib 80 nM with I-BET151 2 uM, OTX015 1 uM (Table 2) or medium alone (row)): 19823.08 | luminescent signals (SU-DHL-2; ibrutinib 400 nM with I-BET151 2 uM, OTX015 1 uM (Table 2) or medium alone (row)): 23679.47 | luminescent signals (SU-DHL-2; ibrutinib 2000 nM with I-BET151 2 uM, OTX015 1 uM (Table 2) or medium alone (row)): 29411.5 | luminescent signals (SU-DHL-2; ibrutinib 10000 nM with I-BET151 2 uM, OTX015 1 uM (Table 2) or medium alone (row)): 3706.648 | luminescent signals (SU-DHL-2; ibrutinib […] with I-BET151 2 uM, OTX015 1 uM (Table 2) or medium alone (row)): 19174.22 | luminescent signals (OCI-LY3; [1]): 20530.28 | luminescent signals (OCI-LY3; [2]): 21973.49 | luminescent signals (OCI-LY3; [3]): 23078.2 | luminescent signals (OCI-LY3; [4]): 22419.57 | luminescent signals (OCI-LY3; [5]): 21821.3 | luminescent signals (OCI-LY3; [6]): 21944.63 | luminescent signals (OCI-LY3; [7]): 22621.62 | luminescent signals (OCI-LY3; [8]): 24841.54 | luminescent signals (OCI-LY3; [9]): 21414.57 | luminescent signals (OCI-LY3; [10]): 22582.26 | luminescent signals (OCI-LY10; [1]): 41458.59 | luminescent signals (OCI-LY10; [2]): 45492.43 | luminescent signals (OCI-LY10; [3]): 52166.4 | luminescent signals (OCI-LY10; [4]): 39783.52 | luminescent signals (OCI-LY10; [5]): 26164.72 | luminescent signals (OCI-LY10; [6]): 24844.65 | luminescent signals (OCI-LY10; [7]): 24502.8 | luminescent signals (OCI-LY10; [8]): 24579.06 | luminescent signals (OCI-LY10; [9]): 25346.91 | luminescent signals (OCI-LY10; [10]): 47932.71 | NK cytotoxicity (percentage of target cell death, PI-positive cells) (YAC-1 (target cells)): enhanced NK cytotoxicity | luminescent signals (TMD8; ibrutinib 0 nM (BET inhibitor alone): I-BET151 200 nM, OTX015 100 nM): 59694.27 | luminescent signals (TMD8; ibrutinib 0.0256 nM with I-BET151 200 nM, OTX015 100 nM or medium alone (row)): 18249.87 | luminescent signals (TMD8; ibrutinib 0.64 nM with I-BET151 200 nM, OTX015 100 nM or medium alone (row)): 16842.39 | luminescent signals (TMD8; ibrutinib 3.2 nM with I-BET151 200 nM, OTX015 100 nM or medium alone (row)): 16468.11 | luminescent signals (TMD8; ibrutinib 16 nM with I-BET151 200 nM, OTX015 100 nM or medium alone (row)): 16312.6 | luminescent signals (TMD8; ibrutinib 80 nM with I-BET151 200 nM, OTX015 100 nM or medium alone (row)): 15297.84 | luminescent signals (TMD8; ibrutinib 400 nM with I-BET151 200 nM, OTX015 100 nM or medium alone (row)): 15282.03 | luminescent signals (TMD8; ibrutinib 2000 nM with I-BET151 200 nM, OTX015 100 nM or medium alone (row)): 15571.96 | luminescent signals (TMD8; ibrutinib 10000 nM with I-BET151 200 nM, OTX015 100 nM or medium alone (row)): 9818.137 | luminescent signals (TMD8; ibrutinib […] with I-BET151 200 nM, OTX015 100 nM or medium alone (row)): 18911.45
